The results in this text go back to patent publication US20090048112A1, “Novel Herbicides” (SYNGENTA LIMITED, priority 2005, published 2009).

The assay has as its system Monocotyledonous and dicotyledonous test plants. Put plainly: Example B3: herbicidal action prior to emergence (pre-emergence), 96-cell seed trays, 1000 g/ha. Format: in vivo. Also on record: key: 0 is no damage to plant; 5 is total damage to plant. The note with it: 9 days after application; for AGSTE herbicidal effect (visual assessment, scale 0-5): Agrostis tenius (Colonial bentgrass); for AMARE herbicidal effect (visual assessment, scale 0-5): Amaranthus retroflexus (redroot pigweed); for DIGSA herbicidal effect (visual assessment, scale 0-5): Digitaria sanguinalis (hairy finger-grass); for POATR herbicidal effect (visual assessment, scale 0-5): Poa trivialis (rough blue grass); for SETIT herbicidal effect (visual assessment, scale 0-5): Setaria italica (foxtail millet). How it is done:
Monocotyledonous and dicotyledonous test plants were sown in sterilised standard soil in seed trays each with 96 cells. The seed trays were stored under controlled conditions in a climatic chamber for one day (cultivation at 23° C. during the day and 17° C. at night; 13 hours of light; 50-60% humidity). The chemicals were applied to the soil surface. The application was carried out with an aqueous suspension of the test substances, prepared as a formulation in water with 10% dimethyl sulfoxide (CAS RN 67-68-5), to achieve a field equivalent of 1000 l/ha. The application rate of the test substances was 1000 g/ha. The plants were grown on in the climatic chamber for 9 days (cultivation at 24° C. during the day and 19° C. at night; 13 hours of light; 50-60% humidity). A visual assessment of the herbicidal effect was made at 9 days after application. The following scale was used for assessment: 0, 1, 2, 3, 4 and 5 (where 0 is no damage to plant and 5 is total damage to plant).

Turning to `CC(Oc1c(C[S+]([O-])c2ncc(Cl)s2)c(C(F)(F)F)nn1C)C(F)(F)F` (mixture of isomers) [Compound 1.127], the “AGSTE herbicidal effect (visual assessment, scale 0-5)” value (shortened to “AGSTE herbicidal effect”) came to 5; the “AMARE herbicidal effect (visual assessment, scale 0-5)” value (shortened to “AMARE herbicidal effect”) came to 5; the “DIGSA herbicidal effect (visual assessment, scale 0-5)” value (shortened to “DIGSA herbicidal effect”) is listed as 5; the “POATR herbicidal effect (visual assessment, scale 0-5)” value (shortened to “POATR herbicidal effect”) was 5. Moreover, the “SETIT herbicidal effect (visual assessment, scale 0-5)” value (shortened to “SETIT herbicidal effect”) was found to be 5.
With `CC[S+]([O-])c1c(C[S+]([O-])c2ncc(Cl)s2)c(C(F)(F)F)nn1C` (mixture of isomers) [Compound No. 1.078], the “AGSTE herbicidal effect” value is 5; the “AMARE herbicidal effect” value is on record as 4; the “DIGSA herbicidal effect” value turned out to be 5; the “POATR herbicidal effect” value is on record as 5. Besides, the “SETIT herbicidal effect” value came out at 5.
For `CCS(=O)(=O)c1c(C[S+]([O-])c2ncc(Cl)s2)c(C(F)(F)F)nn1C` (racemic) [1.080], the “AGSTE herbicidal effect” value was found to be 5; the “AMARE herbicidal effect” value turned out to be 4; the “DIGSA herbicidal effect” value is given as 5; the “POATR herbicidal effect” value was 5. Moreover, the “SETIT herbicidal effect” value was found to be 5.
On to `Cn1nc(C(F)(F)F)c(C[S+]([O-])c2ncc(C(F)F)s2)c1OCC(F)(F)F` (racemic) [Compound 1.086], for which the “AGSTE herbicidal effect” value came to 5; the “AMARE herbicidal effect” value worked out at 5; the “DIGSA herbicidal effect” value is given as 5; the “POATR herbicidal effect” value is given as 5. Further, the “SETIT herbicidal effect” value is 4.
Turning to `Cn1nc(C(F)(F)F)c(C[S+]([O-])c2ncc(Cl)s2)c1OCCCF` (racemic) [Compound 1.103], the “AGSTE herbicidal effect” value was determined as 5; the “AMARE herbicidal effect” value turned out to be 4; the “DIGSA herbicidal effect” value turned out to be 5; the “POATR herbicidal effect” value amounted to 5. Also, the “SETIT herbicidal effect” value was 4.
For `Cn1cc(C[S+]([O-])c2ncc(Cl)s2)c(C(F)(F)F)n1` (racemic) [Compound 1.106], the “AGSTE herbicidal effect” value is listed as 0; the “AMARE herbicidal effect” value is reported as 2; the “DIGSA herbicidal effect” value stood at 4; the “POATR herbicidal effect” value is 5. For the same compound, the “SETIT herbicidal effect” value came out at 4.
For `Cn1nc(C(F)(F)F)c(C[S+]([O-])c2ncc(Cl)s2)c1OC(CF)CF` (racemic) [Compound 1.113], the “AGSTE herbicidal effect” value is listed as 5; the “AMARE herbicidal effect” value is 5; the “DIGSA herbicidal effect” value was 5; the “POATR herbicidal effect” value is given as 4. Besides, the “SETIT herbicidal effect” value was 5.
As for `Cn1nc(C(F)(F)F)c(C[S+]([O-])c2ncc(Cl)s2)c1OCC(F)F` (racemic) [Compound 1.116], the “AGSTE herbicidal effect” value is 5; the “AMARE herbicidal effect” value was found to be 5; the “DIGSA herbicidal effect” value is 5; the “POATR herbicidal effect” value is 5. The “SETIT herbicidal effect” value worked out at 5.
Take `CC(Oc1c(CS(=O)(=O)c2ncc(Cl)s2)c(C(F)(F)F)nn1C)C(F)(F)F` (racemic) [Compound 1.130]: the “AGSTE herbicidal effect” value came to 5; the “AMARE herbicidal effect” value came to 5; the “DIGSA herbicidal effect” value came to 5; the “POATR herbicidal effect” value worked out at 5. The “SETIT herbicidal effect” value was found to be 5.
Consider `CC(CF)Oc1c(CS(=O)(=O)c2ncc(Cl)s2)c(C(F)(F)F)nn1C` (racemic) [Compound 1.133], for which the “AGSTE herbicidal effect” value came out at 5; the “AMARE herbicidal effect” value came to 5; the “DIGSA herbicidal effect” value is given as 5; the “POATR herbicidal effect” value was determined as 5. The “SETIT herbicidal effect” value came out at 5.
For the compound `CSc1c(C[S+]([O-])c2ncc(Cl)s2)c(C(F)(F)F)nn1C` (racemic) [Compound No. 1.089], the “AGSTE herbicidal effect” value was determined as 5; the “AMARE herbicidal effect” value is recorded as 5; the “DIGSA herbicidal effect” value worked out at 5; the “POATR herbicidal effect” value worked out at 5. Also, the “SETIT herbicidal effect” value was 5.
`Cn1nc(C(F)(F)F)c(C[S+]([O-])c2ncc(Cl)s2)c1S(C)(=O)=O` (racemic) [Compound No. 1.092]: the “AGSTE herbicidal effect” value is on record as 5; the “AMARE herbicidal effect” value is 3; the “DIGSA herbicidal effect” value turned out to be 5; the “POATR herbicidal effect” value came to 3. The “SETIT herbicidal effect” value was determined as 4.
For the compound `CC(Oc1c(CSc2ncc(Cl)s2)c(C(F)(F)F)nn1C)C(F)(F)F` (racemic) [Compound No. 1.126], the “AGSTE herbicidal effect” value was 4; the “AMARE herbicidal effect” value is 4; the “DIGSA herbicidal effect” value was 5; the “POATR herbicidal effect” value came to 1. For the same compound, the “SETIT herbicidal effect” value is listed as 4.
Consider `Cn1nc(C(F)(F)F)c(C[S+]([O-])c2ncc(Cl)s2)c1[S+](C)[O-]` (single isomer, unassigned) [Compound No. 1.090], for which the “AGSTE herbicidal effect” value is reported as 5; the “AMARE herbicidal effect” value worked out at 3; the “DIGSA herbicidal effect” value was determined as 5; the “POATR herbicidal effect” value is listed as 4. For the same compound, the “SETIT herbicidal effect” value came to 5.
As to `Cn1nc(C(F)(F)F)c(C[S+]([O-])c2ncc(Cl)s2)c1[S+](C)[O-]` (single isomer, unassigned) [Compound No. 1.091], the “AGSTE herbicidal effect” value turned out to be 5; the “AMARE herbicidal effect” value was 4; the “DIGSA herbicidal effect” value is 4; the “POATR herbicidal effect” value came out at 0. For the same compound, the “SETIT herbicidal effect” value was found to be 4.
On to `Cc1cnc(S(=O)(=O)Cc2c(C(F)(F)F)nn(C)c2OCC(F)(F)F)s1` [Compound 1.075], for which the “AGSTE herbicidal effect” value came out at 5; the “AMARE herbicidal effect” value turned out to be 1; the “DIGSA herbicidal effect” value came out at 0; the “POATR herbicidal effect” value came out at 5. Moreover, the “SETIT herbicidal effect” value was 5.
In the case of `Cn1nc(C(F)(F)F)c(CS(=O)(=O)c2ncc(Cl)s2)c1OCCCF` [Compound 1.104], the “AGSTE herbicidal effect” value was 5; the “AMARE herbicidal effect” value turned out to be 5; the “DIGSA herbicidal effect” value is 5; the “POATR herbicidal effect” value came out at 5. For the same compound, the “SETIT herbicidal effect” value was determined as 5.
Take `Cn1cc(CS(=O)(=O)c2ncc(Cl)s2)c(C(F)(F)F)n1` [Compound 1.107]: the “AGSTE herbicidal effect” value is on record as 0; the “AMARE herbicidal effect” value was 3; the “DIGSA herbicidal effect” value is recorded as 5; the “POATR herbicidal effect” value was 0. For the same compound, the “SETIT herbicidal effect” value came to 3.
`Cn1nc(C(F)(F)F)c(CS(=O)(=O)c2ncc(Cl)s2)c1OC(CF)CF` [Compound 1.114]: the “AGSTE herbicidal effect” value was determined as 5; the “AMARE herbicidal effect” value amounted to 5; the “DIGSA herbicidal effect” value came to 5; the “POATR herbicidal effect” value is on record as 5. Also, the “SETIT herbicidal effect” value is 5.
Consider `Cn1nc(C(F)(F)F)c(CS(=O)(=O)c2ncc(Cl)s2)c1OCC(F)F` [Compound 1.117], for which the “AGSTE herbicidal effect” value is listed as 5; the “AMARE herbicidal effect” value was determined as 5; the “DIGSA herbicidal effect” value is 5; the “POATR herbicidal effect” value was determined as 5. For the same compound, the “SETIT herbicidal effect” value is reported as 5.
Consider `Cn1nc(C(F)(F)F)c(CS(=O)(=O)c2ncc(Cl)s2)c1OCC(F)(F)C(F)F` [Compound 1.120], for which the “AGSTE herbicidal effect” value worked out at 5; the “AMARE herbicidal effect” value stood at 5; the “DIGSA herbicidal effect” value turned out to be 5; the “POATR herbicidal effect” value worked out at 5. The “SETIT herbicidal effect” value was 5.
Consider `C=C(F)COc1c(CS(=O)(=O)c2ncc(Cl)s2)c(C(F)(F)F)nn1C` [Compound 1.125], for which the “AGSTE herbicidal effect” value worked out at 5; the “AMARE herbicidal effect” value was determined as 5; the “DIGSA herbicidal effect” value was found to be 5; the “POATR herbicidal effect” value is reported as 5. Also, the “SETIT herbicidal effect” value was 5.
